Among the test systems are SF-268 CNS; T-47D breast; NCI/ADR-RES ovarian; RXF 393 renal; SK-MEL-28 melanoma; OVCAR-3 ovarian; SK-MEL-5 melanoma; NCI-H226 lung.
Assay in all cases: DTP human tumour cell line panel, 48 h

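Grown in 96-well plates, cells were treated for 48 hours with each compound at five concentrations. Insufficient inhibition: endpoint recorded as highest concentration tested. GI50: concentration for 50% inhibition of growth. TGI denotes the concentration required for complete inhibition of growth.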

Take `N#CC1=C(N)NC(=O)NC12Nc1ccccc1S2` (stereo not drawn): the GI50 in the experiment with SF-268 CNS was 23.6 µM; in the experiment on T-47D breast it was 26.7 µM; with NCI/ADR-RES ovarian it was 24.7 µM; in the experiment on RXF 393 renal it was 16.9 µM; in the experiment with SK-MEL-28 melanoma, 26.7 µM; in the experiment on OVCAR-3 ovarian it was 26.8 µM. Also, the GI50 was 17.5 µM in the experiment on SK-MEL-5 melanoma and 14.4 µM with NCI-H226 lung. The TGI was 70.8 µM in the experiment on SF-268 CNS; > 100 µM in the experiment with T-47D breast; > 68.8 µM in the experiment with NCI/ADR-RES ovarian; > 52.7 µM in the experiment with RXF 393 renal; > 70.3 µM with SK-MEL-28 melanoma; > 59.9 µM in the experiment on OVCAR-3 ovarian. In addition, the TGI amounted to 33.2 µM with SK-MEL-5 melanoma and 36.9 µM in the experiment on NCI-H226 lung.
Consider `COC(=O)C1(F)C(=O)NC(=O)NC1O` (stereo not drawn), for which the TGI in the experiment on SF-268 CNS, with T-47D breast, with NCI/ADR-RES ovarian, with RXF 393 renal, in the experiment on SK-MEL-28 melanoma and with OVCAR-3 ovarian was > 100 µM each time. Further, the TGI in the experiment on SK-MEL-5 melanoma and in the experiment with NCI-H226 lung was > 100 µM each time.
For the molecule `Cc1cc(Cc2cc(C)cc(C(C)(C)C)c2O)c(O)c(C(C)(C)C)c1`, the GI50 with SF-268 CNS is 5.06 µM; in the experiment on T-47D breast it was 4.7 µM; in the experiment with NCI/ADR-RES ovarian, 10.1 µM; in the experiment on RXF 393 renal, 6.37 µM; in the experiment on SK-MEL-28 melanoma it was 12.9 µM; with OVCAR-3 ovarian, 3.97 µM. For the same molecule, the GI50 in the experiment with SK-MEL-5 melanoma is 10.6 µM; with NCI-H226 lung it was 14.2 µM. Further, the TGI with SF-268 CNS amounted to 17.3 µM; with T-47D breast, 16.8 µM; in the experiment on NCI/ADR-RES ovarian it was 21.8 µM; with RXF 393 renal, 18.9 µM; in the experiment on SK-MEL-28 melanoma it was 25.6 µM; with OVCAR-3 ovarian, 13.1 µM. Besides, the TGI with SK-MEL-5 melanoma was 22.4 µM; in the experiment with NCI-H226 lung it was 30 µM.
Take `O=c1[nH]cnc2[nH]ncc12`: the GI50 in the experiment with SF-268 CNS was > 5000 µM; in the experiment on T-47D breast, 698 µM; in the experiment on NCI/ADR-RES ovarian it was 214 µM; in the experiment with RXF 393 renal it was 266 µM; in the experiment on SK-MEL-28 melanoma it was 2000 µM; in the experiment on OVCAR-3 ovarian it was 269 µM. Further, the values for the GI50 with SK-MEL-5 melanoma and in the experiment with NCI-H226 lung were 1200 µM and 878 µM, respectively. For the same molecule, the TGI with SF-268 CNS is > 5000 µM; in the experiment on T-47D breast, > 5000 µM; in the experiment on NCI/ADR-RES ovarian it was > 1250 µM; in the experiment on RXF 393 renal, > 5000 µM; in the experiment with SK-MEL-28 melanoma, > 5000 µM; in the experiment on OVCAR-3 ovarian, > 1820 µM. Further, the TGI with SK-MEL-5 melanoma and with NCI-H226 lung was > 5000 µM each time.
Turning to `CO[C@@H]1/C=C(C)/C=C/[C@@H](C)/C=C(\C)C(=O)OC(/C(C)=C/C=C(\C)CNC(=O)[C@H](CO)NC=O)[C@@H](C)/C=C/C=C/[C@H](OC)CC/C=C(C)/C=C/C1` (stereo partly drawn), the GI50 in the experiment with SF-268 CNS is < 0.005 µM; with T-47D breast, 0.0243 µM; in the experiment on NCI/ADR-RES ovarian, 0.0587 µM; with RXF 393 renal it was 0.285 µM; with SK-MEL-28 melanoma, 0.00843 µM; in the experiment with OVCAR-3 ovarian, < 0.005 µM. Moreover, the GI50 in the experiment with SK-MEL-5 melanoma and with NCI-H226 lung was < 0.005 µM throughout. Besides, the TGI turned out to be 1.09 µM in the experiment with SF-268 CNS; 16.8 µM in the experiment with T-47D breast; 15.4 µM in the experiment with NCI/ADR-RES ovarian; 0.808 µM with RXF 393 renal; 11.4 µM with SK-MEL-28 melanoma; 0.605 µM with OVCAR-3 ovarian. In addition, the TGI with SK-MEL-5 melanoma is < 0.005 µM; in the experiment on NCI-H226 lung it was 0.221 µM.
Regarding `c1ccc(-n2nnnc2-c2cccc3ccccc23)cc1`, the GI50 in the experiment on SF-268 CNS is 0.833 µM; in the experiment on T-47D breast, 0.461 µM; with NCI/ADR-RES ovarian, 0.279 µM; with RXF 393 renal it was 1.01 µM; in the experiment with OVCAR-3 ovarian, 0.257 µM; in the experiment with SK-MEL-5 melanoma it was 0.462 µM. For the same molecule, the GI50 in the experiment on NCI-H226 lung is 15.5 µM. Further, the TGI was > 73.1 µM in the experiment on SF-268 CNS; > 100 µM in the experiment with T-47D breast; 1.61 µM in the experiment on NCI/ADR-RES ovarian; > 20.1 µM in the experiment with RXF 393 renal; > 100 µM with SK-MEL-28 melanoma; 0.627 µM in the experiment with OVCAR-3 ovarian. In addition, the TGI in the experiment on SK-MEL-5 melanoma is 20.2 µM; in the experiment on NCI-H226 lung, > 100 µM.
Take `O=C(O)c1cc(N=Cc2ccccc2O)cc(C(=O)O)c1`: the TGI with SF-268 CNS, with T-47D breast, in the experiment on NCI/ADR-RES ovarian, with RXF 393 renal, in the experiment on SK-MEL-28 melanoma and in the experiment on OVCAR-3 ovarian was > 100 µM in each case. The TGI in the experiment with SK-MEL-5 melanoma and in the experiment on NCI-H226 lung was > 100 µM each time.
With `COc1cc(-c2nc3sc4c(c3c(=O)[nH]2)CCCCCC4)cc(OC)c1OC`, the GI50 is 2.97 µM in the experiment with SF-268 CNS; 1.4 µM in the experiment on T-47D breast; 0.892 µM in the experiment on NCI/ADR-RES ovarian; 0.636 µM in the experiment on RXF 393 renal; 1.95 µM in the experiment on SK-MEL-28 melanoma; 0.922 µM in the experiment on OVCAR-3 ovarian. The GI50 in the experiment with SK-MEL-5 melanoma is 0.853 µM; in the experiment with NCI-H226 lung, 3.6 µM. For the same molecule, the TGI in the experiment with SF-268 CNS is > 33.2 µM; in the experiment with T-47D breast, > 33.2 µM; in the experiment with NCI/ADR-RES ovarian it was > 33.2 µM; in the experiment on RXF 393 renal, 2.55 µM; in the experiment with SK-MEL-28 melanoma, > 33.2 µM; with OVCAR-3 ovarian, 8.94 µM. In addition, the TGI in the experiment with SK-MEL-5 melanoma is 2.96 µM; in the experiment with NCI-H226 lung, > 33.2 µM.
For `COc1cccc(/C=C/c2cnc3ccccc3n2)c1OC`, the TGI is > 100 µM with SF-268 CNS; 82.9 µM in the experiment on T-47D breast; 60.1 µM in the experiment with NCI/ADR-RES ovarian; 96.1 µM with RXF 393 renal; > 100 µM in the experiment on SK-MEL-28 melanoma; > 100 µM in the experiment on OVCAR-3 ovarian. The TGI in the experiment with SK-MEL-5 melanoma was 58.3 µM; in the experiment with NCI-H226 lung, > 100 µM.
For the molecule `CN(C)C(=O)c1cc2cnc(Nc3ccc(-c4csc5c(=O)cc(N6CCOCC6)oc45)cc3)nc2n1C1CCCC1`, the GI50 was 0.222 µM with SF-268 CNS; 0.171 µM with T-47D breast; 0.375 µM in the experiment with NCI/ADR-RES ovarian; 0.163 µM in the experiment on RXF 393 renal; 0.207 µM in the experiment on SK-MEL-28 melanoma; 0.228 µM in the experiment on OVCAR-3 ovarian. Also, the GI50 in the experiment on SK-MEL-5 melanoma is 0.146 µM; in the experiment with NCI-H226 lung it was 0.229 µM. Besides, the TGI in the experiment on T-47D breast is > 100 µM; in the experiment on NCI/ADR-RES ovarian it was > 65.6 µM; with RXF 393 renal, 0.388 µM; with SK-MEL-28 melanoma, 0.869 µM; in the experiment on SK-MEL-5 melanoma it was 0.423 µM; with NCI-H226 lung, 2.04 µM.

Usually GI50 stands for the concentration giving 50% growth inhibition. In general, TGI refers to the concentration giving total growth inhibition. Low readings indicate more potent growth arrest, high ones less potent growth arrest.

For the origin of these results see PubChem BioAssay (NCI).
